Data taken from US20030074686A1, “Novel method for the generation and selection of transgenic linseed/flax plants” (priority 1999, published 2003).
Values joined by “and” are separate entries in the source; they are usually repeats but may differ in a detail not shown here. Identical values can stand only once.

How the values were obtained:
[1] = tested on: Ed 45 288 transgenic shoots (JH5 vector); test: Survival of transgenic shoots on medium with G-418; format: in vivo, Linum usitatissimum; settings: of four shoots
Excerpt: (§1) Preferably, testing the two antibiotic system in the transformation experiments is done using kanamycin for the initial selection and G-418 for the second and third rounds of selection (FIG. 1).

[2] = tested on: Flanders 301 transgenic shoots (JH5 vector); test: Survival of transgenic shoots on medium with G-418; format: in vivo, Linum usitatissimum; settings: of four shoots
Excerpt: as §1

[3] = tested on: McGregor 324 transgenic shoots (JH5 vector); test: Survival of transgenic shoots on medium with G-418; format: in vivo, Linum usitatissimum; settings: of four shoots
Excerpt: as §1

Flanders WT shoots = test: Survival of wild-type shoots on medium with G-418; format: in vivo, Linum usitatissimum; settings: of four shoots
Excerpt: as §1

McGregor WT shoots = test: Survival of wild-type shoots on medium with G-418; format: in vivo, Linum usitatissimum; settings: of four shoots
Excerpt: as §1

Ed 45 WT shoots = test: Survival of wild-type shoots on medium with G-418; format: in vivo, Linum usitatissimum; settings: of four shoots
[4] = tested on: hypocotyl segments used for the Agrobacterium tumefaciens inoculation; test: Sensitivity of hypocotyl segments to selection antibiotics; format: in vivo, flax; settings: selective antibiotic for the initial transformation
Excerpt: as §1

[5] = tested on: wild-type flax regenerated shoots; test: Tolerance of regenerated shoots to G-418; format: in vivo; settings: tests using regenerated shoots
Excerpt: as §1

CN[C@@H]1[C@@H](O)[C@@H](O[C@@H]2[C@@H](O)[C@H](O[C@H]3O[C@H]([C@@H](C)O)[C@@H](O)[C@H](O)[C@H]3N)[C@@H](N)C[C@H]2N)OC[C@]1(C)O [G-418]
3 and 4: Number of shoots surviving 24 days on medium with G-418 ([1]; G-418 100 mg/l) | Number of shoots surviving 24 days on medium with G-418 ([2]; G-418 30 mg/l) | Number of shoots surviving 24 days on medium with G-418 (Flanders WT shoots; G-418 20 mg/l)
no callus was produced: Callus production with the antibiotic as selective agent [4]
4 and 3: Number of shoots surviving 24 days on medium with G-418 ([1]; G-418 50 mg/l) | Number of shoots surviving 24 days on medium with G-418 ([2]; G-418 100 mg/l) | Number of shoots surviving 24 days on medium with G-418 ([3]; G-418 150 mg/l) | Number of shoots surviving 24 days on medium with G-418 (McGregor WT shoots; G-418 20 mg/l)
1 and 2: Number of shoots surviving 24 days on medium with G-418 ([2]; G-418 200 mg/l) | Number of shoots surviving 24 days on medium with G-418 (Ed 45 WT shoots; G-418 20 mg/l) | Number of shoots surviving 24 days on medium with G-418 (Ed 45 WT shoots; G-418 30 mg/l)
0: Number of shoots surviving 24 days on medium with G-418 (Flanders WT shoots; G-418 50 mg/l) | Number of shoots surviving 24 days on medium with G-418 (Flanders WT shoots; G-418 70 mg/l) | Number of shoots surviving 24 days on medium with G-418 (Flanders WT shoots; G-418 100 mg/l) | Number of shoots surviving 24 days on medium with G-418 (Flanders WT shoots; G-418 150 mg/l) | Number of shoots surviving 24 days on medium with G-418 (Flanders WT shoots; G-418 200 mg/l) | Number of shoots surviving 24 days on medium with G-418 (McGregor WT shoots; G-418 50 mg/l) | Number of shoots surviving 24 days on medium with G-418 (McGregor WT shoots; G-418 70 mg/l) | Number of shoots surviving 24 days on medium with G-418 (McGregor WT shoots; G-418 100 mg/l) | Number of shoots surviving 24 days on medium with G-418 (McGregor WT shoots; G-418 150 mg/l) | Number of shoots surviving 24 days on medium with G-418 (McGregor WT shoots; G-418 200 mg/l) | Number of shoots surviving 24 days on medium with G-418 (Ed 45 WT shoots; G-418 40 mg/l) | Number of shoots surviving 24 days on medium with G-418 (Ed 45 WT shoots; G-418 50 mg/l) | Number of shoots surviving 24 days on medium with G-418 (Ed 45 WT shoots; G-418 70 mg/l) | Number of shoots surviving 24 days on medium with G-418 (Ed 45 WT shoots; G-418 100 mg/l) | Number of shoots surviving 24 days on medium with G-418 (Ed 45 WT shoots; G-418 150 mg/l) | Number of shoots surviving 24 days on medium with G-418 (Ed 45 WT shoots; G-418 200 mg/l)
4: Number of shoots surviving 24 days on medium with G-418 ([1]; G-418 10 mg/l) | Number of shoots surviving 24 days on medium with G-418 ([1]; G-418 20 mg/l) | Number of shoots surviving 24 days on medium with G-418 ([1]; G-418 30 mg/l) | Number of shoots surviving 24 days on medium with G-418 ([1]; G-418 40 mg/l) | Number of shoots surviving 24 days on medium with G-418 ([1]; G-418 70 mg/l) | Number of shoots surviving 24 days on medium with G-418 ([2]; G-418 10 mg/l) | Number of shoots surviving 24 days on medium with G-418 ([2]; G-418 20 mg/l) | Number of shoots surviving 24 days on medium with G-418 ([2]; G-418 40 mg/l) | Number of shoots surviving 24 days on medium with G-418 ([2]; G-418 50 mg/l) | Number of shoots surviving 24 days on medium with G-418 ([2]; G-418 70 mg/l) | Number of shoots surviving 24 days on medium with G-418 ([3]; G-418 10 mg/l) | Number of shoots surviving 24 days on medium with G-418 ([3]; G-418 20 mg/l) | Number of shoots surviving 24 days on medium with G-418 ([3]; G-418 30 mg/l) | Number of shoots surviving 24 days on medium with G-418 ([3]; G-418 40 mg/l) | Number of shoots surviving 24 days on medium with G-418 ([3]; G-418 50 mg/l) | Number of shoots surviving 24 days on medium with G-418 ([3]; G-418 70 mg/l) | Number of shoots surviving 24 days on medium with G-418 ([3]; G-418 100 mg/l) | Number of shoots surviving 24 days on medium with G-418 (Flanders WT shoots; G-418 10 mg/l) | Number of shoots surviving 24 days on medium with G-418 (McGregor WT shoots; G-418 10 mg/l) | Number of shoots surviving 24 days on medium with G-418 (Ed 45 WT shoots; G-418 10 mg/l)
2: Number of shoots surviving 24 days on medium with G-418 (McGregor WT shoots; G-418 30 mg/l)
2 and 4: Number of shoots surviving 24 days on medium with G-418 ([2]; G-418 150 mg/l)
no natural tolerance: Natural tolerance of wild-type flax [5]
